Source: publication PMC10164177, “The difference in the cellular uptake of tocopherol and tocotrienol is influenced by their affinities to albumin” (Scientific Reports, 2023)

Legend:
BSA = biological target: T1, BSA (Bos taurus, UniProt P02769); test: Fluorescence quenching binding parameters between vitamin E and BSA; design: species or system bovine; details: 2.0 μM BSA, room temperature, mean ± S.E. (n = 3); for Stern–Volmer constant (Ksv) / Kd: excitation 280 nm, emission 340 nm; for Kd: read-out: apparent binding constant (Ka) (converted)
T1 construct: Bovine serum albumin (BSA; Fatty Acid/IgG/Protease-Free); purchased FUJIFILM Wako Pure Chemical Corporation, Ltd. (Osaka, Japan)
T1 sequence (P02769 25-607): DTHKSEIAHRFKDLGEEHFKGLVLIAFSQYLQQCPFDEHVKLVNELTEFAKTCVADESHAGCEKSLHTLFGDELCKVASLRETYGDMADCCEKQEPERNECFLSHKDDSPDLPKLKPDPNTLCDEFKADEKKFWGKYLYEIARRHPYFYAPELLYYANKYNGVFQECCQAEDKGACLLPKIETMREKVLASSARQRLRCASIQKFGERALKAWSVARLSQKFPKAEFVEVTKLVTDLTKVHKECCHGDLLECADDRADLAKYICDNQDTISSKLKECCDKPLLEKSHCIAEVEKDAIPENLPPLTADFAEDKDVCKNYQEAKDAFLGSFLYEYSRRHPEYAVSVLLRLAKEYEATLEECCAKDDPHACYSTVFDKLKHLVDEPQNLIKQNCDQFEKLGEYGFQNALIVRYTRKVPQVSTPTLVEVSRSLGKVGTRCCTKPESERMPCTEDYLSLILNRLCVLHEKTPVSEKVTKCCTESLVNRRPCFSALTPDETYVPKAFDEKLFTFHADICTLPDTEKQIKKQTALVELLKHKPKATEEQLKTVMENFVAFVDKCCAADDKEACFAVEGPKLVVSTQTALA
Method: The binding parameters of each Toc or T3 analog to BSA were measured with slight modifications to a previously described procedure[32],[34]. Each Toc or T3 analog was dissolved in DMSO at 10 mM, and added to a quartz cell containing 3.0 mL of 2.0 μM BSA stock solution to achieve a final concentration of 1.0–225.0 μM. […] Fluorescence spectra were recorded at room temperature using FP-6200 (JASCO, Tokyo, Japan) at an excitation wavelength of 280 nm and emission wavelengths from 300 to 500 nm. The intensity at 340 nm was used to calculate the Stern–Volmer constant (Ksv) by the following equation[39]: F0/F = 1 + Ksv[VE]. We also calculated the apparent binding constant (Ka) and the number of binding sites (n) by the following equation[40]: log((F0 − F)/F) = nlogKa − nlog(1/([VE] − [BSA](F0 − F)/F0)). Abbreviations in the above equations refer to follows: F0, initial fluorescence intensity; F, fluorescence intensity in the presence of each Toc or T3 analog; [VE], molar concentration of each Toc or T3 analog; [BSA], original BSA concentration. The same measurements were performed using a buffer solution without BSA, and the F values were calculated using the measured fluorescence intensity as a blank.

THP-1 monocytes [1] = test: Cellular uptake of vitamin E in THP-1 monocytes (37 °C, LC–MS/MS); assay type: cell-based, human; details: 20.0 μM analog, serum-depleted medium with 0–200.0 μM BSA, 2 h
Method: THP-1 monocytes (2.5 × 10^6 cells) were preincubated in 5.0 mL of 10% FBS/RPMI medium. The cells (2.5 × 10^6 cells) were also preincubated in 5.0 mL of FBS-free 10% PBS/RPMI medium in the absence or presence of 0.2, 2.0, 20.0, 32.4, and 200.0 μM BSA (each medium was prepared by dissolving the 2.0 mM BSA stock solution in 10% PBS/RPMI medium). After 24 h of these preincubations, 5.0 μL of each vitamin E stock solution was added to 10% FBS/RPMI medium or 10% PBS/RPMI medium at a final concentration of 20.0 μM and further incubated for 2 h. […] The incubated cells were collected by centrifugation and washed with PBS. The cells were resuspended in 0.6 mL water and homogenized on ice. A part of the lysate (0.5 mL) was used to analyze vitamin E (described below), and the remaining 0.1 mL was used to quantify protein by the BCA Protein Assay (Thermo Fisher Scientific).
Vitamin E was extracted from the cell lysates according to the procedure described in our previous study. Tocol (Tama Biochemical, Tokyo, Japan) was used as an internal standard. The extract was analyzed by liquid chromatography-tandem mass spectrometry (LC–MS/MS). The LC–MS/MS system consisted of an ExionLC system and a 4000QTRAP mass spectrometer (SCIEX, Tokyo, Japan). […] Vitamin E was detected in the multiple reaction monitoring (MRM) mode (Table 1) under atmospheric pressure chemical ionization. […]

THP-1 monocytes [2] = test: Cellular uptake in THP-1 monocytes with ATP synthesis inhibitors; assay type: cell-based, human; details: 10.0 μM vitamin E, 10.0 μM BSA, 1 mM DNP or 10 mM NaN3 + 5 mM 2DG, 1 h, 37 °C, vs control
Method: To further investigate cellular uptake mechanism, cell culture study was conducted using two ATP synthesis inhibitors as follows: (1) 1 mM 2,4-dinitrophenol or (2) a mixture of 10 mM sodium azide and 5 mM 2-deoxy-D-glucose[45]. THP-1 monocytes (2.5 × 10^6) preincubated in 10% FBS/RPMI medium were collected, suspended in 1.0 mL of PBS(+)[45] containing each inhibitor, and preincubated for 10 min at 37 °C under slow rotation in a tube rotator. […] Control samples were similarly prepared without the addition of inhibitors and incubated for 1 h. Vitamin E and protein levels were measured as described above.
Figure S1 The effect of two ATP synthesis inhibitors (1 mM 2,4-dinitrophenol (DNP) or a mixture of 10 mM sodium azide and 5 mM 2-deoxy-D-glucose (NaN3+2DG)) on the […]
Cells were incubated in PBS(+) […]
hour. Control samples were similarly incubated without the addition of inhibitors. […]
the main article. Values are expressed as mean ± SE of three independent experiments.
The statical significance of the results was analyzed using Dunnett's test, where p < 0.05 was considered statistically significant . […]
and samples treated with ATP synthesis inhibitor.
(1 picture or pasted object on this page, not shown here)

PC-3 cells = system: PC-3 cells; design: method as in PMID 21400505; details: 50 μM γ-Toc or 10 μM γ-T3, 6 hours; cited from earlier work
LNCaP cells = system: LNCaP cells; design: method as in PMID 21400505; details: 50 μM γ-Toc or 10 μM γ-T3, 6 hours; cited from earlier work
THP-1 monocytes [3] = test: Cellular uptake in THP-1 monocytes at low temperature (4 °C); assay type: cell-based, human; details: 20.0 μM, 2 h; for effect of BSA addition on cellular uptake at low temperature: serum-depleted medium with 0–200.0 μM BSA
Method: THP-1 monocytes preincubated in 10% FBS/RPMI medium were collected. The collected cells (2.5 × 10^6) were suspended in 1.0 mL of 10% PBS/RPMI medium containing 0, 0.2, 2.0, 20.0, 32.4, and 200.0 μM BSA on ice. This suspension was immediately mixed with 4.0 mL of 10% PBS/RPMI medium containing BSA and vitamin E. The final composition was 5.0 mL of 10% PBS/RPMI medium containing 0, 0.2, 2.0, 20.0, 32.4, or 200.0 μM BSA, and 20.0 μM α-Toc or α-T3. Cells were incubated at 4 °C with slow rotation in a tube rotator. After 2 h incubation, the cell lysate was prepared as above, and vitamin E and protein levels were measured.
Vitamin E was extracted from the cell lysates according to the procedure described in our previous study. Tocol (Tama Biochemical, Tokyo, Japan) was used as an internal standard. The extract was analyzed by liquid chromatography-tandem mass spectrometry (LC–MS/MS). The LC–MS/MS system consisted of an ExionLC system and a 4000QTRAP mass spectrometer (SCIEX, Tokyo, Japan). An Inersil SIL-100A-5 column (4.6 mm × 250 mm; GL Science, Tokyo, Japan) was eluted with a mobile phase consisting of hexane/1,4-dioxane/2-propanol (100:4:0.5, v/v/v). The flow rate was 1.0 mL/min, and the column temperature was 40 °C. Vitamin E was detected in the multiple reaction monitoring (MRM) mode (Table 1) under atmospheric pressure chemical ionization. The ion source parameters were as follows: curtain gas, 45.0 psi; collision gas, 8.0 psi; nebulizer current, − 3.0 μA; temperature, 350.0 °C; ion source gas 1, 60.0 psi; interface heater, ON.

Jurkat cells = system: Jurkat cells; design: method as in PMID 15753172; details: 1 μM α-Toc or α-T3, 24 hours; cited from earlier work

| Compound | Stern–Volmer constant (Ksv) (BSA) | Kd (BSA) [µM] | number of binding site (n) (BSA) | effect of BSA addition on cellular concentration (THP-1 monocytes [1]) | effect of ATP synthesis inhibitors on cellular uptake (THP-1 monocytes [2]) | cellular uptake compared with γ-Toc (PC-3 cells) | cellular uptake compared with γ-Toc (LNCaP cells) | effect of BSA addition on cellular uptake at low temperature (THP-1 monocytes [3]) | cellular uptake relative to α-Toc (Jurkat cells) [fold] | cellular concentration compared with α-Toc at low temperature (THP-1 monocytes [3]; BSA-containing medium) |
| --- | --- | --- | --- | --- | --- | --- | --- | --- | --- | --- |
| CC(C)=CCC/C(C)=C/CC/C(C)=C/CC[C@]1(C)CCc2cc(O)cc(C)c2O1 [δ-T3] | 1.51 ± 0.02 × 10^4 M^−1 | 55.2 | 0.78 ± 0.01 | increase the most | No significance | – | – | – | – | – |
| CC(C)=CCC/C(C)=C/CC/C(C)=C/CC[C@]1(C)CCc2cc(O)c(C)c(C)c2O1 [γ-T3] | 1.35 ± 0.01 × 10^4 M^−1 | 62.1 | 0.74 ± 0.02 | – | – | higher cellular uptake than γ-Toc | higher cellular uptake than γ-Toc | – | – | – |
| Cc1cc(O)c(C)c2c1O[C@](C)(CCC[C@H](C)CCC[C@H](C)CCCC(C)C)CC2 [β-Toc] | 1.00 ± 0.02 × 10^4 M^−1 | 95.2 | 0.69 ± 0.01 | – | – | – | – | – | – | – |
| Cc1c(O)cc2c(c1C)O[C@](C)(CCC[C@H](C)CCC[C@H](C)CCCC(C)C)CC2 [γ-Toc] | 0.82 ± 0.01 × 10^4 M^−1 | 115 | 0.71 ± 0.02 | – | – | – | – | – | – | – |
| Cc1cc(O)cc2c1O[C@](C)(CCC[C@H](C)CCC[C@H](C)CCCC(C)C)CC2 [δ-Toc] | 0.89 ± 0.04 × 10^4 M^−1 | 105 | 0.71 ± 0.01 | – | No significance | – | – | – | – | – |
| Cc1c(C)c2c(c(C)c1O)CC[C@@](C)(CCC[C@H](C)CCC[C@H](C)CCCC(C)C)O2 [α-Toc] | 0.93 ± 0.06 × 10^4 M^−1 | 99 | 0.69 ± 0.02 | particularly pronounced | – | – | – | reduced upon the addition of BSA | – | – |
| CC(C)=CCC/C(C)=C/CC/C(C)=C/CC[C@]1(C)CCc2c(C)c(O)c(C)c(C)c2O1 [α-T3] | 1.19 ± 0.07 × 10^4 M^−1 | 69.4 | 0.70 ± 0.04 | – | – | – | – | did not observe the BSA-induced increase | 6.5 | slightly higher than that of α-Toc |
| CC(C)=CCC/C(C)=C/CC/C(C)=C/CC[C@]1(C)CCc2c(C)c(O)cc(C)c2O1 [β-T3] | 1.39 ± 0.13 × 10^4 M^−1 | 59.5 | 0.76 ± 0.00 | – | – | – | – | – | – | – |
